Measurements: patent US20140249135A1, “PIM KINASE INHIBITORS AND METHODS OF THEIR USE” (NOVARTIS AG, priority 2007, published 2014)
Read-outs that look alike come from different tables or passages of the source.

What was measured:
Type in all cases: biochemical
Pim3 kinase = Pim3 kinase (Homo sapiens, UniProt Q86V86); assay: Pim3 ATP depletion assay
Pim2 kinase = Pim2 kinase (Homo sapiens, UniProt Q9P1W9); assay: Pim2 ATP depletion assay;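 also: Luciferase-based luminescent readout of ATP remaining after PIM2 phosphorylates a BAD peptide, final 5 nM enzyme, 4 µM ATP, 10 µM peptide, 2.5% DMSO, run to roughly half ATP consumption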
Pim1 kinase = Pim1 kinase (Homo sapiens, UniProt P11309); assay: Pim1 ATP depletion assay;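 also: Luciferase-luciferin luminescence readout of residual ATP after PIM1 transfers phosphate to a peptide substrate, 40 µM ATP added, reaction run to roughly half ATP consumption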
[1] = Pim1 ATP depletion assay, read-out: PIM1 IC50
[2] = Pim1 ATP depletion assay, read-out: IC50 (μM) PIM1

Pim1 kinase, sequence (P11309 whole entry): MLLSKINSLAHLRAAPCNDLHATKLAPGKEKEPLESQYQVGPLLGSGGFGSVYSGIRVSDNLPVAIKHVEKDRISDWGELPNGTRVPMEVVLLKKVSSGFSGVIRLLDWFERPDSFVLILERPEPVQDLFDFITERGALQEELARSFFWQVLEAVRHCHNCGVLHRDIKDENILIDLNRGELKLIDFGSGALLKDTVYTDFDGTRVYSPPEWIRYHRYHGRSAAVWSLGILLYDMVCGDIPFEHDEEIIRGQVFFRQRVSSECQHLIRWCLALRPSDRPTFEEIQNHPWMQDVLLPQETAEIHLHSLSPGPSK
Pim2 kinase, sequence (Q9P1W9 whole entry): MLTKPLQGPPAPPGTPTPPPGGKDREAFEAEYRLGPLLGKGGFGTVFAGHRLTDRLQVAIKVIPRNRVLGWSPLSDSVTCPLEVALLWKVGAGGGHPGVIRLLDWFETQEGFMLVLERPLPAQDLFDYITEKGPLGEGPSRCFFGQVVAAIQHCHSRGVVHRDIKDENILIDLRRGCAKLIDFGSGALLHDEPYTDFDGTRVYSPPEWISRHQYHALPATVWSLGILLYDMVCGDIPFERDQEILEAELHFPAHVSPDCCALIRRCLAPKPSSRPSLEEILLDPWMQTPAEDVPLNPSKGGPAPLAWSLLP

Row | Structure (SMILES) | IC50 (Pim3 kinase; read-out: PIM3 IC50) [µM] | IC50 (Pim2 kinase; read-out: PIM2 IC50) [µM] | IC50 (Pim1 kinase; [1]) [µM] | IC50 (Pim3 kinase; read-out: IC50 (μM) PIM3) [µM] | IC50 (Pim2 kinase; read-out: IC50 (μM) PIM2) [µM] | IC50 (Pim1 kinase; [2]) [µM] | IC50 (Pim1 kinase) [µM]
1 | CCc1cccc(-c2ccc(N)c(C(=O)Nc3cnccc3-c3cc(N)nc(C)n3)n2)c1 [Example 555, 3-Amino-6-(3-ethyl-phenyl)-pyridine-2-carboxylic acid [4-(6-amino-2-methyl-pyrimidin-4-yl)-pyridin-3-yl]-amide] | < 1 | < 1 | < 1 | – | – | – | –
2 | Cc1nc(N)cc(-c2ccncc2NC(=O)c2nc(-c3ccc(C(F)(F)F)cc3F)ccc2N)n1 [Example 557, 3-Amino-6-(2-fluoro-4-trifluoromethyl-phenyl)-pyridine-2-carboxylic acid [4-(6-amino-2-methyl-pyrimidin-4-yl)-pyridin-3-yl]-amide] | < 1 | < 1 | < 1 | – | – | – | –
3 | CCOc1ccc(F)c(-c2ncc(N)c(C(=O)Nc3cnccc3N3CCC[C@H](N)C3)n2)c1 [Example 548, 5-Amino-2-(5-ethoxy-2-fluoro-phenyl)-pyrimidine-4-carboxylic acid (3-amino-3,4,5,6-tetrahydro-2H-[1,4′]bipyridinyl-3′-yl)-amide] | < 1 | < 1 | < 1 | – | – | – | –
4 | CO[C@@H]1C[C@H](N)CN(c2ccncc2NC(=O)c2nc(C3CCCCC3)ccc2N)C1 [Example 285, 3-Amino-6-cyclohexyl-pyridine-2-carboxylic acid (3-amino-5-methoxy-3,4,5,6-tetrahydro-2H-[1,4′]bipyridinyl-3′-yl)-amide] | – | – | – | < 1 | < 1 | < 1 | –
5 | Cc1cscc1-c1ccc(N)c(C(=O)Nc2cnccc2N2CCC[C@H](N)C2)n1 [Example 489, 3-Amino-6-(4-methyl-thiophen-3-yl)-pyridine-2-carboxylic acid (3-amino-3,4,5,6-tetrahydro-2H-[1,4′]bipyridinyl-3′-yl)-amide] | – | – | – | < 1 | < 1 | < 1 | –
6 | Cc1ccc(-c2ccc(N)c(C(=O)Nc3cnccc3-c3cc(N)nc(C)n3)n2)c(F)c1 [Example 558, 3-Amino-6-(2-fluoro-4-methyl-phenyl)-pyridine-2-carboxylic acid [4-(6-amino-2-methyl-pyrimidin-4-yl)-pyridin-3-yl]-amide] | < 1 | < 1 | < 1 | – | – | – | –
7 | N[C@@H]1CN(c2ccncc2NC(=O)c2ccc(F)c(-c3ccccc3F)n2)CC[C@H]1O [Example 682, 5-Fluoro-6-(2-fluoro-phenyl)-pyridine-2-carboxylic acid (3-amino-4-hydroxy-3,4,5,6-tetra-hydro-2H-[1,4′]bipyridinyl-3′-yl)-amide] | < 1 | < 1 | < 1 | – | – | – | –
8 | NC1CCCN(c2ccncc2NC(=O)c2cnccn2)C1 (stereo not drawn) [Example 197, N-[4-(3-aminopiperidin-1-yl)-pyridin-3-yl]pyrazine-2-carboxamide] | – | – | – | > 25 | > 25 | > 25 | –
9 | COc1cccnc1-c1ccc(N)c(C(=O)Nc2cnccc2N2CCC[C@H](N)C2)n1 [Example 697, 5-Amino-3′-methoxy-[2,2′]bi-pyridinyl-6-carboxylic acid (3-amino-3,4,5,6-tetrahydro-2H-[1,4′]bipyridinyl-3′-yl)-amide] | < 1 | 1 to 10 | < 1 | – | – | – | –
10 | Nc1ccc(-c2c(F)cccc2F)nc1C(=O)Nc1cnccc1N1CC[C@@H](O)[C@@H](N)C1 [Example 752, 3-Amino-6-(2,6-difluoro-phenyl)-pyridine-2-carboxylic acid (3-amino-4-hydroxy-3,4,5,6-tetra-hydro-2H-[1,4′]bipyridinyl-3′-yl)-amide] | < 1 | < 1 | – | – | – | – | < 1
11 | Cc1cnc(C(=O)Nc2cnccc2N2CCCC(N)C2)cn1 (stereo not drawn) [Example 198, N-[4-(3-aminopiperidin-1-yl)pyridin-3-yl]-5-methyl-pyrazine-2-carboxamide] | – | – | – | > 25 | > 25 | > 25 | –
12 | Nc1ccc(-c2cccc(C(F)(F)F)c2)nc1C(=O)Nc1cnccc1N1CCC[C@H](N)C1 [Example 460, 3-Amino-6-(3-trifluoromethyl-phenyl)-pyridine-2-carboxylic acid (3-amino-3,4,5,6-tetrahydro-2H-[1,4′]bipyridinyl-3′-yl)-amide] | – | – | – | < 1 | < 1 | < 1 | –
13 | Nc1ccc(-c2ccc(CN3CCOCC3)cc2)nc1C(=O)Nc1cnccc1N1CCC[C@H](N)C1 [Example 567, 3-Amino-6-(4-morpholin-4-ylmethyl-phenyl)-pyridine-2-carboxylic acid (3-amino-3,4,5,6-tetrahydro-2H-[1,4′]bipyridinyl-3′-yl)-amide] | < 1 | < 1 | < 1 | – | – | – | –
14 | Nc1ccc(-c2ccc(-c3cccs3)s2)nc1C(=O)Nc1cnccc1N1CCC[C@H](N)C1 [Example 446, 3-Amino-6-[2,2′]bithiophenyl-5-yl-pyridine-2-carboxylic acid (3-amino-3,4,5,6-tetrahydro-2H-[1,4′]bipyridinyl-3′-yl)-amide] | – | – | – | < 1 | < 1 | < 1 | –
15 | Nc1cnc(-c2c(F)cccc2F)nc1C(=O)Nc1cnccc1N1CCC[C@H](N)C1 [Example 270, 5-Amino-2-(2,6-difluoro-phenyl)-pyrimidine-4-carboxylic acid (3-amino-3,4,5,6-tetrahydro-2H-[1,4′]bipyridinyl-3′-yl)-amide] | – | – | – | < 1 | < 1 | < 1 | –
16 | CCCOc1ccc(F)c(-c2ccc(N)c(C(=O)Nc3cnccc3-c3cc(C)nc(N)n3)n2)c1F [Example 562, 3-Amino-6-(2,6-difluoro-3-propoxy-phenyl)-pyridine-2-carboxylic acid [4-(2-amino-6-methyl-pyrimidin-4-yl)-pyridin-3-yl]-amide] | < 1 | < 1 | < 1 | – | – | – | –
17 | Nc1cnc(-c2ccccc2F)nc1C(=O)Nc1cnccc1N1CCC[C@H](N)C1 [Example 263, 5-Amino-2-(2-fluoro-phenyl)-pyrimidine-4-carboxylic acid (3-amino-3,4,5,6-tetrahydro-2H-[1,4′]bipyridinyl-3′-yl)-amide] | – | – | – | < 1 | < 1 | < 1 | –
18 | Cc1cc(-c2ccncc2NC(=O)c2nc(-c3cc(C(=O)NC(C)C)ccc3F)c(F)cc2N)nc(N)n1 [Example 560, 3-Amino-5-fluoro-6-(2-fluoro-5-isopropylcarbamoyl-phenyl)-pyridine-2-carboxylic acid [4-(2-amino-6-methyl-pyrimidin-4-yl)-pyridin-3-yl]-amide] | < 1 | < 1 | < 1 | – | – | – | –
19 | Cc1nc(N)cc(-c2ccncc2NC(=O)c2nc(-c3cc(C(=O)NC(C)C)ccc3F)ccc2N)n1 [Example 273, 3-Amino-6-(2-fluoro-5-isopropylcarbamoyl-phenyl)-pyridine-2-carboxylic acid [4-(6-amino-2-methyl-pyrimidin-4-yl)-pyridin-3-yl]-amide] | – | – | – | < 1 | < 1 | < 1 | –
20 | N[C@H]1CCCN(c2ccncc2NC(=O)c2nc(-c3ccccc3)ccc2F)C1 [Example 568, 3-Fluoro-6-phenyl-pyridine-2-carboxylic acid (3-amino-3,4,5,6-tetrahydro-2H-[1,4′]bipyridinyl-3′-yl)-amide] | < 1 | < 1 | < 1 | – | – | – | –
21 | CC(=O)c1ccc(N2CCC(N)CC2)c(NC(=O)c2nccnc2N)c1 [Example 220, N-[5-acetyl-2-(4-aminopiperidin-1-yl)phenyl]-3-aminopyrazine-2-carboxamide] | – | – | – | < 1 | 10 to 25 | < 1 | –
22 | CCc1cccc(-c2ccc(N)c(C(=O)Nc3cnccc3N3CCC[C@H](N)C3)n2)c1 [Example 452, 3-Amino-6-(3-ethyl-phenyl)-pyridine-2-carboxylic acid (3-amino-3,4,5,6-tetrahydro-2H-[1,4′]bipyridinyl-3′-yl)-amide] | – | – | – | < 1 | < 1 | < 1 | –
23 | Nc1cc(-c2ccncc2NC(=O)c2cccc(-c3ccc(N4CCNCC4)cc3)n2)nc(C(F)(F)F)n1 [Example 525, 6-(4-Piperazin-1-yl-phenyl)-pyridine-2-carboxylic acid [4-(6-amino-2-trifluoromethyl-pyrimidin-4-yl)-pyridin-3-yl]-amide] | – | – | – | < 1 | < 1 | < 1 | –
24 | Nc1ccc(-c2ccccc2F)nc1C(=O)Nc1cnccc1-c1cncnc1 [Example 602, 3-amino-6-(2-fluorophenyl)-N-(4-pyrimidin-5-ylpyridin-3-yl)pyridine-2-carboxamide] | < 1 | 1 to 10 | < 1 | – | – | – | –
25 | CCCOc1ccc(F)c(-c2ccc(N)c(C(=O)Nc3cnccc3-c3cc(N)nc(SC)n3)n2)c1F [Example 532, 3-Amino-6-(2,6-difluoro-3-propoxy-phenyl)-pyridine-2-carboxylic acid [4-(6-amino-2-methylsulfanyl-pyrimidin-4-yl)-pyridin-3-yl]-amide] | – | – | – | < 1 | < 1 | < 1 | –
26 | COC1CCN(c2ccncc2NC(=O)c2nc(-c3c(F)cccc3F)ccc2N)CC1N (stereo not drawn) [Example 301, 3-Amino-6-(2,6-difluoro-phenyl)-pyridine-2-carboxylic acid (3-amino-4-methoxy-3,4,5,6-tetrahydro-2H-[1,4′]bi-pyridinyl-3′-yl)-amide] | – | – | – | < 1 | < 1 | < 1 | –
27 | CC(C)Oc1ccc(F)c(-c2ccc(N)c(C(=O)Nc3cnccc3N3CC[C@@H](N)[C@H](O)C3)n2)c1F (stereo in doubt) [Example 667, 3-Amino-6-(2,6-difluoro-3-isopropoxy-phenyl)-pyridine-2-carboxylic acid (4-amino-3-hydroxy-3,4,5,6-tetrahydro-2H-[1,4′]bipyridinyl-3′-yl)-amide] | < 1 | < 1 | < 1 | – | – | – | –
